According to ChEMBL document CHEMBL4715877, “Asperginols A and B, Diterpene Pyrones, from an Aspergillus sp. and the Structure Revision of Previously Reported Analogues” (J Nat Prod, 2020):

The compounds below were run on HCT-116 (assay: Cytotoxicity against human HCT-116 cells assessed as reduction in cell viability after 72 hrs by MTT assay). Conditions: not given; call rule not given here.
Format: functional, cell-based

| SMILES | IC50 |
| --- | --- |
| C=C1[C@H](O)C[C@@H]2[C@](C)(CC[C@H]3OC(C)(C)[C@@H](OC(=O)/C=C/C=C/C=C/[C@@H](C)CC)CC[C@]23C)[C@@H]1Cc1c(O)c(C)c(C)oc1=O | Not Active |
| C=C1[C@H](O)C[C@@H]2[C@](C)(CC[C@H]3OC(C)(C)[C@@H](OC(=O)/C=C/C=C/[C@@H](C)CC)CC[C@]23C)[C@@H]1Cc1c(O)c(C)c(C)oc1=O | Not Active |
| C=C1CC[C@@H]2[C@](C)(CC[C@H]3OC(C)(C)[C@@H](OC(=O)/C=C/C=C/[C@@H](C)CC)CC[C@]23C)[C@@H]1Cc1c(O)c(C)c(C)oc1=O | Not Active |
| C=C1[C@H](O)C[C@@H]2[C@](C)(CC[C@H]3OC(C)(C)[C@@H](O)CC[C@]23C)[C@@H]1Cc1c(O)c(C)c(C)oc1=O | Not Active |
| C=C1[C@H](O)C[C@@H]2[C@](C)(CC[C@H]3OC(C)(C)[C@@H](OC(C)=O)CC[C@]23C)[C@@H]1Cc1c(O)c(C)c(C)oc1=O | Not Active |
| C=C1CC[C@@H]2[C@](C)(CC[C@H]3OC(C)(C)[C@@H](O)CC[C@]23C)[C@@H]1Cc1c(O)c(C)c(C)oc1=O | Not Active |

What follows are compounds tested on HepG2 (assay: Cytotoxicity against human HepG2 cells assessed as reduction in cell viability after 72 hrs by MTT assay). Conditions: not given.
Format: functional, cell-based

| SMILES | IC50 |
| --- | --- |
| C=C1[C@H](O)C[C@@H]2[C@](C)(CC[C@H]3OC(C)(C)[C@@H](OC(=O)/C=C/C=C/C=C/[C@@H](C)CC)CC[C@]23C)[C@@H]1Cc1c(O)c(C)c(C)oc1=O | Not Active |
| C=C1[C@H](O)C[C@@H]2[C@](C)(CC[C@H]3OC(C)(C)[C@@H](OC(=O)/C=C/C=C/[C@@H](C)CC)CC[C@]23C)[C@@H]1Cc1c(O)c(C)c(C)oc1=O | Not Active |
| C=C1CC[C@@H]2[C@](C)(CC[C@H]3OC(C)(C)[C@@H](OC(=O)/C=C/C=C/[C@@H](C)CC)CC[C@]23C)[C@@H]1Cc1c(O)c(C)c(C)oc1=O | Not Active |
| C=C1[C@H](O)C[C@@H]2[C@](C)(CC[C@H]3OC(C)(C)[C@@H](O)CC[C@]23C)[C@@H]1Cc1c(O)c(C)c(C)oc1=O | Not Active |
| C=C1[C@H](O)C[C@@H]2[C@](C)(CC[C@H]3OC(C)(C)[C@@H](OC(C)=O)CC[C@]23C)[C@@H]1Cc1c(O)c(C)c(C)oc1=O | Not Active |
| C=C1CC[C@@H]2[C@](C)(CC[C@H]3OC(C)(C)[C@@H](O)CC[C@]23C)[C@@H]1Cc1c(O)c(C)c(C)oc1=O | Not Active |

These compounds were tested on HT-29 (assay: Cytotoxicity against human HT-29 cells assessed as reduction in cell viability after 72 hrs by MTT assay). Conditions: Homo sapiens, HT-29, 72 h; read-out: IC50.
Format: functional, cell-based

| SMILES | IC50 [µM] |
| --- | --- |
| C=C1[C@H](O)C[C@@H]2[C@](C)(CC[C@H]3OC(C)(C)[C@@H](OC(=O)/C=C/C=C/C=C/[C@@H](C)CC)CC[C@]23C)[C@@H]1Cc1c(O)c(C)c(C)oc1=O | 7.6 |

Same assay, conditions: ht-29

| SMILES | IC50 |
| --- | --- |
| C=C1[C@H](O)C[C@@H]2[C@](C)(CC[C@H]3OC(C)(C)[C@@H](OC(=O)/C=C/C=C/[C@@H](C)CC)CC[C@]23C)[C@@H]1Cc1c(O)c(C)c(C)oc1=O | Not Active |
| C=C1CC[C@@H]2[C@](C)(CC[C@H]3OC(C)(C)[C@@H](OC(=O)/C=C/C=C/[C@@H](C)CC)CC[C@]23C)[C@@H]1Cc1c(O)c(C)c(C)oc1=O | Not Active |
| C=C1[C@H](O)C[C@@H]2[C@](C)(CC[C@H]3OC(C)(C)[C@@H](O)CC[C@]23C)[C@@H]1Cc1c(O)c(C)c(C)oc1=O | Not Active |
| C=C1[C@H](O)C[C@@H]2[C@](C)(CC[C@H]3OC(C)(C)[C@@H](OC(C)=O)CC[C@]23C)[C@@H]1Cc1c(O)c(C)c(C)oc1=O | Not Active |
| C=C1CC[C@@H]2[C@](C)(CC[C@H]3OC(C)(C)[C@@H](O)CC[C@]23C)[C@@H]1Cc1c(O)c(C)c(C)oc1=O | Not Active |
